Tests used:
[1] = tested on: Glomerella lagenarium (Colletotrichum lagenarium); assay: Glomerella lagenarium (Colletotrichum lagenarium)/liquid culture (anthracnose), inhibition of growth; type: cell-based; conditions: Colletotrichum orbiculare, liquid culture, PDB, 24° C., 3-4 days after application, read-out: control of Glomerella lagenarium (inhibition of growth vs untreated)
Protocol: Example B3: Glomerella lagenarium (Colletotrichum lagenarium)/Liquid Culture (Anthracnose)
(§1) Conidia of the fungus from cryogenic storage are directly mixed into nutrient broth (PDB potato dextrose broth). After placing a (DMSO) solution of test compound into a microtiter plate (96-well format), the nutrient broth containing the fungal spores is added. The test plates are incubated at 24° C. and the inhibition of growth is measured photometrically 3-4 days after application.

[2] = tested on: Blumeria graminis f. sp. tritici (Erysiphe graminis f. sp. tritici); assay: Blumeria graminis f. sp. tritici/wheat/leaf disc preventative (powdery mildew on wheat); type: in vivo; conditions: 200 ppm, wheat leaf segments cv. Kanzler, inoculated 1 day after application, assessed 6-8 days after application
Protocol: Example B4: Blumeria graminis f. Sp. Tritici (Erysiphe graminis f. Sp. Tritici)/Wheat/Leaf Disc Preventative (Powdery Mildew on Wheat)
Wheat leaf segments cv. Kanzler are placed on agar in a multiwell plate (24-well format) and sprayed with the formulated test compound diluted in water. The leaf disks are inoculated by shaking powdery mildew infected plants above the test plates 1 day after application. The inoculated leaf disks are incubated at 20° C. and 60% rh under a light regime of 24 h darkness followed by 12 h light/12 h darkness in a climate chamber and the activity of a compound is assessed as percent disease control compared to untreated when an appropriate level of disease damage appears on untreated check leaf segments (6-8 days after application).

[3] = tested on: Botryotinia fuckeliana (Botrytis cinerea); assay: Botryotinia fuckeliana (Botrytis cinerea)/liquid culture (gray mould), inhibition of growth; type: cell-based; conditions: liquid culture, Vogels broth, 24° C., 3-4 days after application, read-out: control of Botryotinia fuckeliana (inhibition of growth vs untreated)
Protocol: Example B2: Botryotinia fuckeliana (Botrytis cinerea)/Liquid Culture (Gray Mould)
as §1, with “(Vogels” for “(PDB potato dextrose”, “determined” for “measured”

[4] = tested on: Mycosphaerella graminicola (Septoria tritici); assay: Mycosphaerella graminicola (Septoria tritici)/liquid culture (Septoria blotch), inhibition of growth; type: cell-based; conditions: Zymoseptoria tritici, liquid culture, PDB, 24° C., 4-5 days after application, read-out: control of Mycosphaerella graminicola (inhibition of growth vs untreated)
Protocol: Example B12: Mycosphaerella graminicola (Septoria tritici)/Liquid Culture (Septoria Blotch)
as §1, with “determined” for “measured”, “4-5” for “3-4”

Alternaria solani = assay: Alternaria solani/tomato/leaf disc (early blight); type: in vivo; conditions: 200 ppm; tomato leaf disks cv. Baby; inoculated 2 days after application; assessed 5-7 days after application
Protocol: Example B1: Alternaria solani/Tomato/Leaf Disc (Early Blight)
Tomato leaf disks cv. Baby are placed on agar in multiwell plates (24-well format) and sprayed with the formulated test compound diluted in water. The leaf disks are inoculated with a spore suspension of the fungus 2 days after application. The inoculated leaf disks are incubated at 23° C./21° C. (day/night) and 80% rh under a light regime of 12/12 h (light/dark) in a climate cabinet and the activity of a compound is assessed as percent disease control compared to untreated when an appropriate level of disease damage appears on untreated check disk leaf disks (5-7 days after application).

[5] = tested on: Monographella nivalis (Microdochium nivale); assay: Monographella nivalis (Microdochium nivale)/liquid culture (foot rot cereals), inhibition of growth; type: cell-based; conditions: liquid culture, PDB, 24° C., 4-5 days after application, read-out: control of Monographella nivalis (inhibition of growth vs untreated)
Protocol: Example B8: Monographella nivalis (Microdochium nivale)/Liquid Culture (Foot Rot Cereals)
as §1, with “determined” for “measured”, “4-5” for “3-4”

Plasmopara viticola = type: in vivo; conditions: 200 ppm; grape vine leaf disks; preventative, inoculated 1 day after application; assessed 6-8 days after application
Fusarium culmorum [6] = assay: microbe, parasite or virus in culture; type: cell-based; conditions: read-out: control of Fusarium culmorum (inhibition of growth vs untreated)
[7] = tested on: Mycosphaerella arachidis (Cercospora arachidicola); assay: Mycosphaerella arachidis (Cercospora arachidicola)/liquid culture (early leaf spot), inhibition of growth; type: cell-based; conditions: liquid culture, PDB, 24° C., 4-5 days after application, read-out: control of Mycosphaerella arachidis (inhibition of growth vs untreated)
Protocol: Example B9: Mycosphaerella arachidis (Cercospora arachidicola)/Liquid Culture (Early Leaf Spot)
as §1, with “determined” for “measured”, “4-5” for “3-4”

Pyrenophora teres = assay: Pyrenophora teres/barley/leaf disc preventative (net blotch); type: in vivo; conditions: 200 ppm, barley leaf segments cv. Hasso, inoculated 2 days after application, assessed 5-7 days after application
Protocol: Example B10: Pyrenophora teres/Barley/Leaf Disc Preventative (Net Blotch)
Barley leaf segments cv. Hasso are placed on agar in a multiwell plate (24-well format) and sprayed with the formulated test compound diluted in water. The leaf segments are inoculated with a spore suspension of the fungus 2 days after application. The inoculated leaf segments are incubated at 20° C. and 65% rh under a light regime of 12 h light/12 h darkness in a climate cabinet and the activity of a compound is assessed as disease control compared to untreated when an appropriate level of disease damage appears in untreated check leaf segments (5-7 days after application).

[8] = tested on: Phaeosphaeria nodorum (Septoria nodorum); assay: Phaeosphaeria nodorum (Septoria nodorum)/wheat/leaf disc preventative (glume blotch); type: in vivo; conditions: 200 ppm, wheat leaf segments cv. Kanzler, inoculated 2 days after application, assessed 5-7 days after application
Protocol: Example B7: Phaeosphaeria nodorum (Septoria nodorum)/Wheat/Leaf Disc Preventative (Glume Blotch)
Wheat leaf segments cv. Kanzler are placed on agar in a multiwell plate (24-well format) and sprayed with the formulated test compound diluted in water. The leaf disks are inoculated with a spore suspension of the fungus 2 days after application. The inoculated test leaf disks are incubated at 20° C. and 75% rh under a light regime of 12 h light/12 h darkness in a climate cabinet and the activity of a compound is assessed as percent disease control compared to untreated when an appropriate level of disease damage appears in untreated check leaf disks (5-7 days after application).

Phytophthora infestans = type: in vivo; conditions: 200 ppm; tomato leaf disks; preventative, inoculated 1 day after application; assessed 5-7 days after application
Sclerotinia sclerotiorum = assay: Sclerotinia sclerotiorum/liquid culture (cottony rot), inhibition of growth; type: cell-based; conditions: liquid culture (mycelia fragments), PDB, 24° C., 3-4 days after application, read-out: control of Sclerotinia sclerotiorum (inhibition of growth vs untreated)
Protocol: Example B11: Sclerotinia sclerotiorum/Liquid Culture (Cottony Rot)
as §1, with “Mycelia fragments of a newly grown liquid culture” for “Conidia”, “fungus” for “fungus from cryogenic storage”, “format)” for “format),”, “material” for “spores”, “determined” for “measured”

Fusarium culmorum [9] = type: in vivo; conditions: 200 ppm; wheat spikelets cv. Monsun; preventative, inoculated 1 day after application; assessed 6-8 days after application
[10] = tested on: Gibberella zeae (Fusarium graminearum); type: in vivo; conditions: 200 ppm; wheat spikelets cv. Monsun; preventative, inoculated 1 day after application; assessed 6-8 days after application

| SMILES | inhibition of growth at 20 ppm [1] [%] | control of Blumeria graminis f. sp. tritici (percent disease control compared to untreated) [2] | inhibition of growth at 20 ppm [3] [%] | inhibition of growth at 20 ppm [4] [%] | control of Alternaria solani (percent disease control compared to untreated) (Alternaria solani) | inhibition of growth at 20 ppm [5] [%] | control of Plasmopara viticola (percent disease control compared to untreated) (Plasmopara viticola) | inhibition of growth at 20 ppm (Fusarium culmorum [6]) [%] | inhibition of growth at 20 ppm [7] [%] | control of Pyrenophora teres (disease control compared to untreated) (Pyrenophora teres) | control of Phaeosphaeria nodorum (percent disease control compared to untreated) [8] | control of Phytophthora infestans (percent disease control compared to untreated) (Phytophthora infestans) | inhibition of growth at 20 ppm (Sclerotinia sclerotiorum) [%] | control of Fusarium culmorum (percent disease control compared to untreated) (Fusarium culmorum [9]) | control of Gibberella zeae (percent disease control compared to untreated) [10] |
| --- | --- | --- | --- | --- | --- | --- | --- | --- | --- | --- | --- | --- | --- | --- | --- |
| Cn1cc(C(C)(CNC(=O)c2cn(-c3ccc(F)cc3F)nn2)c2cccc(Cl)n2)cn1 (stereo not shown) [Compound P-1, N-[2-(6-chloro-2-pyridyl)-2-(1-methylpyrazol-4-yl)propyl]-1-(2,4-difluorophenyl)triazole-4-carboxamide] | ≥ 80 | at least 80% | ≥ 80 | ≥ 80 | at least 80% | ≥ 80 | at least 80% | ≥ 80 | ≥ 80 | at least 80% | at least 80% |  |  |  |  |
| Cn1cc(C(C)(CNC(=O)c2cnn(-c3ccc(F)cc3F)n2)c2cccc(C#N)n2)cn1 (stereo not shown) [Compound P-2, N-[2-(6-cyano-2-pyridyl)-2-(1-methylpyrazol-4-yl)propyl]-2-(2,4-difluorophenyl)triazole-4-carboxamide] |  | at least 80% |  |  |  |  | at least 80% |  |  |  |  | at least 80% |  |  |  |
| Cn1cc(C(C)(CNC(=O)c2cnn(-c3ccc(F)cc3F)n2)c2cccc(Cl)n2)cn1 (stereo not shown) [Compound P-3, N-[2-(6-chloro-2-pyridyl)-2-(1-methylpyrazol-4-yl)propyl]-2-(2,4-difluorophenyl)triazole-4-carboxamide] |  |  |  |  | at least 80% |  |  |  |  | at least 80% |  |  |  |  |  |
| Cn1cc(C(C)(CNC(=O)c2nnn(-c3ccc(F)cc3F)n2)c2cccc(C#N)n2)cn1 (stereo not shown) [Compound P-5, N-[2-(6-cyano-2-pyridyl)-2-(1-methylpyrazol-4-yl)propyl]-2-(2,4-difluorophenyl)tetrazole-5-carboxamide] | ≥ 80 | at least 80% | ≥ 80 | ≥ 80 | at least 80% | ≥ 80 |  |  | ≥ 80 | at least 80% | at least 80% |  | ≥ 80 |  |  |
| Cn1cc(C(C)(CNC(=O)c2nnn(-c3ccc(F)cc3F)n2)c2cccc(Cl)n2)cn1 (stereo not shown) [Compound P-6, N-[2-(6-chloro-2-pyridyl)-2-(1-methylpyrazol-4-yl)propyl]-2-(2,4-difluorophenyl)tetrazole-5-carboxamide] | ≥ 80 | at least 80% | ≥ 80 | ≥ 80 | at least 80% | ≥ 80 |  | ≥ 80 | ≥ 80 | at least 80% | at least 80% |  | ≥ 80 | at least 80% |  |
| Cn1cc(C(C)(CNC(=O)c2cn(-c3ncc(F)cc3F)nn2)c2cccc(Cl)n2)cn1 (stereo not shown) [Compound P-7, N-[2-(6-chloro-2-pyridyl)-2-(1-methylpyrazol-4-yl)propyl]-1-(3,5-difluoro-2-pyridyl)triazole-4-carboxamide] | ≥ 80 | at least 80% | ≥ 80 | ≥ 80 | at least 80% | ≥ 80 |  | ≥ 80 | ≥ 80 | at least 80% | at least 80% |  |  |  | at least 80% |
| Cn1cc(C(C)(CNC(=O)c2cn(-c3ccc(F)cc3F)nn2)c2cccc(Br)n2)cn1 (stereo not shown) [Compound P-8, N-[2-(6-bromo-2-pyridyl)-2-(1-methylpyrazol-4-yl)propyl]-1-(2,4-difluorophenyl)triazole-4-carboxamide] | ≥ 80 | at least 80% | ≥ 80 | ≥ 80 | at least 80% | ≥ 80 |  | ≥ 80 | ≥ 80 | at least 80% | at least 80% |  |  |  |  |
| Cn1cc(C(C)(CNC(=O)c2cn(-c3ccc(F)cc3F)nn2)c2cccc(C#N)n2)cn1 (stereo not shown) [Compound P-9, N-[2-(6-cyano-2-pyridyl)-2-(1-methylpyrazol-4-yl)propyl]-1-(2,4-difluorophenyl)triazole-4-carboxamide] |  | at least 80% |  | ≥ 80 |  | ≥ 80 |  |  |  | at least 80% | at least 80% |  |  |  |  |
